Measured values published in US10077261B2, “Imidazolin-5-one derivative useful as FASN inhibitors for the treatment of cancer” (Janssen Pharmaceutica NV, priority 2012, dated 2018).

Legend:
[1] = target: T1, hFASN enzyme (full length) (Homo sapiens, UniProt P49327); experiment: Fatty Acid Synthase (FASN) inhibition scintillation proximity assay; type: biochemical; conditions: for inhibition at 10 µM: read-out: Human FASN % inhibition @ 10 μM, 10 μM test compound; for IC50: read-out: Human FASN pIC50 (converted)
T1 construct: 10 μL hFASN enzyme (full length, 300 ng, purified in house); made in house
Summary of the method: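 Purified full-length hFASN (300 ng) converts ^3H-acetyl-CoA plus malonyl-CoA to ^3H-palmitate in 100 mM KH2PO4 pH 7.5, 1 mM DTT; compounds tested at 0.01–30 μM. Product captured on streptavidin imaging beads and read by LEADseeker at 610 nm after ≥24 h; 4-parameter logistic fit versus controls.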

A2780 ovarian cells [2] = experiment: A2780 ovarian cell proliferation assay in lipid reduced medium, with palmitate (MTT); type: cell-based; conditions: Homo sapiens, A2780, 96 h; read-out: pIC50 A2780 Ovarian Cell, With Palmitate (converted)
Summary of the method: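 Seeded cells were switched next day to lipid-reduced serum, exposed to compound and 25 μM palmitate complexed with fatty-acid-free BSA, and incubated 96 h. Proliferation was then determined by MTT absorbance at 544 nm, with a best-fit curve of signal against concentration.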

[3] = target: Fatty Acid Synthase Keto-reductase Domain (FASN KR) (Homo sapiens, UniProt P49327); experiment: Fatty Acid Synthase keto-reductase domain (FASN KR) inhibition, NADPH oxidation at 340 nm
Method: After 20 minutes incubation at room temperature the plate was measured again (T2).
The decrease in absorbance was calculated as (Absorbance before incubation T1)−(Absorbance following incubation T2).
A plot of Controlmin versus test compound concentration was fitted to a 4-parameter logistic curve using a non-linear least squares regression method.

A2780 ovarian cells [4] = experiment: A2780 ovarian cell proliferation assay in lipid reduced medium, without palmitate (MTT); type: cell-based; conditions: Homo sapiens, A2780, 96 h; read-out: pIC50 A2780 Ovarian Cell, Without Palmitate (converted)
[5] = system: PC-3M-Luc-C6 prostate cells; experiment: In vitro PC-3M-Luc-C6 prostate cell proliferation assay in lipid reduced medium; type: cell-based; conditions: 96 h, read-out: pIC50 PC-3M-Luc-C6 prostate cell (converted)
[6] = system: LNCaP-Vancouver prostate cells; experiment: In vitro LNCaP Vancouver prostate cell proliferation assay in lipid reduced medium; type: cell-based; conditions: read-out: pIC50 LNCaP_Vancouver prostate cell (converted)

Sequence of Fatty Acid Synthase Keto-reductase Domain (FASN KR) (P49327 whole entry, the tested form may be a part): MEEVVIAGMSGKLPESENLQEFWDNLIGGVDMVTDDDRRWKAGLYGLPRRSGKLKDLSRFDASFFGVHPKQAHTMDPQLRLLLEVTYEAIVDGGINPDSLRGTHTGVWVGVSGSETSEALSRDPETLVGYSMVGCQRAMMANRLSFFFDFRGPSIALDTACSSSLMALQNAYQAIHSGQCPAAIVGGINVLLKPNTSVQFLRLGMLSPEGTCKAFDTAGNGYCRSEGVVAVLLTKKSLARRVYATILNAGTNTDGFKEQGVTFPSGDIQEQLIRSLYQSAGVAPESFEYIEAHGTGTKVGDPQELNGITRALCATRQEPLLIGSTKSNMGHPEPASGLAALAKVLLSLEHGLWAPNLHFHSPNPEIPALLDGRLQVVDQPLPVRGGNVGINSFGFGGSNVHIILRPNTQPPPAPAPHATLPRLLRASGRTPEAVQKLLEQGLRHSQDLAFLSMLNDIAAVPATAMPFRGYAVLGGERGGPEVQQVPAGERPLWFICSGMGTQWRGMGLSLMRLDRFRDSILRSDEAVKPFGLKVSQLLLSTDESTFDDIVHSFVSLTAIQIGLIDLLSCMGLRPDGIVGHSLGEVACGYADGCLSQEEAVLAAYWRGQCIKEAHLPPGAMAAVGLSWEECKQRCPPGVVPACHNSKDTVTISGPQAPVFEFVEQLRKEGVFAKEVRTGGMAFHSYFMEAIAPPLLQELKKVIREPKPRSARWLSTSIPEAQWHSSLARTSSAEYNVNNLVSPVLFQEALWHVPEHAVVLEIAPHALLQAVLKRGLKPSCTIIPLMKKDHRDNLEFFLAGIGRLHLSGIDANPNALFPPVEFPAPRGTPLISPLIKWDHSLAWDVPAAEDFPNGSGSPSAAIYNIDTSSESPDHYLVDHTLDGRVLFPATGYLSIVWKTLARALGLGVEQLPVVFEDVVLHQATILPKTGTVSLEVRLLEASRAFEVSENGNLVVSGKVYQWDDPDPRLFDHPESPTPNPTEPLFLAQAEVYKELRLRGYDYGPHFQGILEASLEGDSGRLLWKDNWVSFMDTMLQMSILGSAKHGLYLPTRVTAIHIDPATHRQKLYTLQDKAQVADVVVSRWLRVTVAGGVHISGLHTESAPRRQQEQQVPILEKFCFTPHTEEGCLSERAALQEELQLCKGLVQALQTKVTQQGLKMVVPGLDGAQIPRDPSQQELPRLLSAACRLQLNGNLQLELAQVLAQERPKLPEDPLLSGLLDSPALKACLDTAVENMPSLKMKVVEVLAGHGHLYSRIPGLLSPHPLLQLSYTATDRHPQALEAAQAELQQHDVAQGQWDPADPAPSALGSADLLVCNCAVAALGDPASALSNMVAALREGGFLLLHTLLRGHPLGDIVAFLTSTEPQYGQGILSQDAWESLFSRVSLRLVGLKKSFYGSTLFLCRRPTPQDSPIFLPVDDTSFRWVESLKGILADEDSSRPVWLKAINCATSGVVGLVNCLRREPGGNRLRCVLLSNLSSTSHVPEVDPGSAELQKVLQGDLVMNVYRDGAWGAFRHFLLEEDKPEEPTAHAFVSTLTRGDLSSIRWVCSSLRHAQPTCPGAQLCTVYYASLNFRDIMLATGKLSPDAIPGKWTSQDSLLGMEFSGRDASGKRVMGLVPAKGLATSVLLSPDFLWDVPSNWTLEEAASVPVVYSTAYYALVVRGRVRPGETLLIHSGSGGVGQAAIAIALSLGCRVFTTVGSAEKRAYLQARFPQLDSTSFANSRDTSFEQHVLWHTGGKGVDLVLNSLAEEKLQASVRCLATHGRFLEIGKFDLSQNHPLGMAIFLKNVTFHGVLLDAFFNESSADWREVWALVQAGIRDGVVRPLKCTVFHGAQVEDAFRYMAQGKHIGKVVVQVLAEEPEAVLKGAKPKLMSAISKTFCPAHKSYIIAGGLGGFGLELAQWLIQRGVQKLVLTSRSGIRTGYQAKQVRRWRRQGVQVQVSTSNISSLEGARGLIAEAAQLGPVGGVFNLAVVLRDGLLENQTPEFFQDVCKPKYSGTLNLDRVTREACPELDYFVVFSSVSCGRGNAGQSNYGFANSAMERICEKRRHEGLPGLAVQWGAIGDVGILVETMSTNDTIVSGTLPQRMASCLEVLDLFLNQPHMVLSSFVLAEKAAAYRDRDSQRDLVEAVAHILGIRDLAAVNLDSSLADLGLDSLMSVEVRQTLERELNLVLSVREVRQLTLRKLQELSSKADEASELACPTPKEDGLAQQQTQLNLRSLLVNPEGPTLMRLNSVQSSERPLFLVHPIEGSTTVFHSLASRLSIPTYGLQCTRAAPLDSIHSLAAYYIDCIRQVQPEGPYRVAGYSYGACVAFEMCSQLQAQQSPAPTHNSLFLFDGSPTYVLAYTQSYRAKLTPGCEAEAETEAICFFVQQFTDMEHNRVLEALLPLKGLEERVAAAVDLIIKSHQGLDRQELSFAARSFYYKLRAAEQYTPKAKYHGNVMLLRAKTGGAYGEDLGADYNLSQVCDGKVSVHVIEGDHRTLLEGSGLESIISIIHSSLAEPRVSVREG
T1 sequence (P49327 whole entry): as the sequence (P49327 whole entry, the tested form may be a part) above

inhibition at 10 µM [1] | IC50 [1] | IC50 (A2780 ovarian cells [2]) | IC50 [3] | IC50 (A2780 ovarian cells [4]) | IC50 [5] | IC50 [6] | SMILES
102% | 263 nM | > 10000 nM | 955 nM | ~2290 nM | 1740 nM | 2340 nM | Cc1cc(-c2ccc3oc(C)c(C)c3c2)ccc1C1=NC2(CC2)C(=O)N1CC1CN(C(=O)C2CC2)C1 [compound 398, 6-{[1-(Cyclopropylcarbonyl)azetidin-3-yl]methyl}-5-[4-(2,3-dimethyl-1-benzofuran-5-yl)-2-methylphenyl]-4,6-diazaspiro[2.4]hept-4-en-7-one]
99% | 363 nM | > 6170 nM | 1320 nM | > 6170 nM | > 3020 nM | > 3020 nM | Cc1oc2ccc(-c3ccc(C4=NC5(CC5)C(=O)N4C[C@@H]4CCN(C(=O)C5CC5)C4)cc3F)cc2c1C [compound 399, 6-{[(3R)-1-(Cyclopropylcarbonyl)pyrrolidin-3-yl]methyl}-5-[4-(2,3-dimethyl-1-benzofuran-5-yl)-3-fluorophenyl]-4,6-diazaspiro[2.4]hept-4-en-7-one]
101% | 195 nM | > 6170 nM | 479 nM | 229 nM | 214 nM | 1200 nM | Nc1cccc(-c2ccc(C3=NC4(CC4)C(=O)N3C[C@@H]3CCN(C(=O)C4CC4)C3)cc2)n1 [compound 400, 5-[4-(6-Aminopyridin-2-yl)phenyl]-6-{[(3R)-1-(cyclopropylcarbonyl)pyrrolidin-3-yl]methyl}-4,6-diazaspiro[2.4]hept-4-en-7-one]
102% | 138 nM | > 10000 nM | 302 nM | 174 nM | 174 nM | 1740 nM | O=C(C1CC1)N1CC[C@@H](CN2C(=O)C3(CC3)N=C2c2ccc(-c3ccc4[nH]ccc4c3)nc2)C1 [compound 402, 6-{[(3R)-1-(Cyclopropylcarbonyl)pyrrolidin-3-yl]methyl}-5-[6-(1H-indol-5-yl)pyridin-3-yl]-4,6-diazaspiro[2.4]hept-4-en-7-one]
100% | 158 nM | > 10000 nM | 427 nM | 126 nM | 162 nM | 525 nM | Cn1cc(-c2ccc(-c3ccc(C4=NC5(CC5)C(=O)N4C[C@H]4CCN(C(=O)C5CC5)C4)cc3)cc2)cn1 [compound 411, 6-{[(3S)-1-(Cyclopropylcarbonyl)pyrrolidin-3-yl]methyl}-5-[4′-(1-methyl-1H-pyrazol-4-yl)biphenyl-4-yl]-4,6-diazaspiro[2.4]hept-4-en-7-one]
96% | 324 nM | > 10000 nM | 427 nM | 1620 nM | 575 nM | 457 nM | O=C(C1CC1)N1CC[C@H](CN2C(=O)C3(CC3)N=C2c2ccc(-c3ccc(-c4cccc(Cl)c4)cc3)cc2)C1 [compound 412, 5-(3″-Chloro-1,1′:4′,1″-terphenyl-4-yl)-6-{[(3S)-1-(cyclopropylcarbonyl)pyrrolidin-3-yl]methyl}-4,6-diazaspiro[2.4]hept-4-en-7-one]
91% | 302 nM | 7240 nM | 891 nM | ~676 nM | 479 nM | 447 nM | Cc1ccc(-c2ccc(-c3ccc(C4=NC5(CC5)C(=O)N4C[C@H]4CCN(C(=O)C5CC5)C4)cc3)cc2)cc1 [compound 413, 6-{[(3S)-1-(Cyclopropylcarbonyl)pyrrolidin-3-yl]methyl}-5-(4″-methyl-1,1′:4′,1″-terphenyl-4-yl)-4,6-diazaspiro[2.4]hept-4-en-7-one]
101% | 135 nM | > 10000 nM | 295 nM | ~200 nM | 178 nM | 1150 nM | O=C(C1CC1)N1CC[C@@H](CN2C(=O)C3(CC3)N=C2c2ccc(-c3ccc4[nH]ncc4c3)c(F)c2)C1 [compound 414, 6-{[(3R)-1-(Cyclopropylcarbonyl)pyrrolidin-3-yl]methyl}-5-[3-fluoro-4-(1H-indazol-5-yl)phenyl]-4,6-diazaspiro[2.4]hept-4-en-7-one]
